Data as given in US4214091A, “Antibiotic No. 2-200 and process for producing thereof” (Chugai Seiyaku Kabushiki Kaisha, priority 1977, dated 1980).
Values after ≈ are worked out from the molar mass of the structure shown. Read-outs that look alike come from different tables or passages of the source.

Key:
[1] = acute toxicity, single administration; conditions: mouse, in vivo, pH 7, read-out: median lethal dose (LD50)
Experimental: The crystal of the antibiotic No. 2-200 obtained in Example 4 was floated in sterile distilled water, mixed with 5% caustic soda to adjust the pH to 7.0, and dissolved to make a solution. The solution was adminstered to 5-week-old ddY male mice to examine its actuate toxicity as well as delayed toxicity. During 10 days that followed the administration, the weight of each mouse, its food intake and water intake were measured.

[2] = tested on: bacteria of genus Salmonella; assay: antibacterial activity (general statement); type: cell-based
[3] = tested on: gram negative bacteria; assay: antibacterial activity (general statement); type: cell-based
[4] = tested on: Fusobacterium glutinosum 1006; assay: MIC, GAM agar, anaerobic; type: cell-based; conditions: 37° C., 40 hours, inoculum 10^6/ML, read-out: Minimum inhibitory concentration (MIC)
Experimental: (§1) Minimum inhibitory concentration (MIC) for gram
(§2) Note: incubated at 37° C. for 40 hours on GAM agar medium (product
(§3) of Nippon Seiyaku) using anaerobic incubator. Inoculated with 10^6

[5] = tested on: Bacteroides fragilis V-6; assay: MIC, GAM agar, anaerobic; type: cell-based; conditions: V6, 40 h, read-out: Minimum inhibitory concentration (MIC)
Experimental: as §1, §2, §3

[6] = tested on: Bacteroides fragilis V-8; assay: MIC, GAM agar, anaerobic; type: cell-based; conditions: V8, 40 h, read-out: Minimum inhibitory concentration (MIC)
Experimental: as §1, §2, §3

[7] = tested on: Bacteroides fragilis V-7; assay: MIC, GAM agar, anaerobic; type: cell-based; conditions: V7, 40 h, read-out: Minimum inhibitory concentration (MIC)
Experimental: as §1, §2, §3

[8] = tested on: Fusobacterium necroforum S-45; assay: MIC, GAM agar, anaerobic; type: cell-based; conditions: S45, 37° C., 40 hours, inoculum 10^6/ML, read-out: Minimum inhibitory concentration (MIC)
Experimental: as §1, §2, §3

[9] = tested on: mammals; conditions: in vivo
[10] = tested on: Salmonella paratyphi A; assay: MIC by agar plate dilution method; type: cell-based; conditions: Salmonella enterica, 24 h
Experimental: (§4) The test organisms were incubated by agar plate dilution method at 37° C. for 24 hours, after which their growth was observed. The test organisms were incubated on an NB medium (product of Eiken Kagaku) at 37° C. overnight, and each culture obtained was diluted 10^3 - to 10^4 -fold and stamped on an agar plate. The following agar plate media were used:
(§5) NA: nutrient agar (product of Eiken Kagaku)
(§6) NA+G6P: glucose-6-phosphoric acid (50 μg/ml) plus nutrient agar
(§7) Anti-3A: antibiotic medium No. 3 agar (product of Difco)
(§8) MHA: Mueller Hinton Agar (product of Eiken Kagaku)

[11] = tested on: Escherichia coli No. 9; assay: MIC by agar plate dilution method; type: cell-based; conditions: NO.9, 24 h, 37° C., read-out: Minimum inhibitory concentration
Experimental: as §4, §5, §6, §7, §8

[12] = tested on: Pseudomonas aeruginosa M57740; assay: MIC by agar plate dilution method; type: cell-based
Experimental: as §4, §5, §6, §7, §8

[13] = tested on: Staphylococcus aureus JU-5; assay: MIC by agar plate dilution method; type: cell-based; conditions: JU5, 24 h, 37° C., read-out: Minimum inhibitory concentration
Experimental: as §4, §5, §6, §7, §8

[14] = tested on: Sarcina lutea; assay: MIC by agar plate dilution method; type: cell-based; conditions: Micrococcus luteus
Experimental: as §4, §5, §6, §7, §8

[15] = tested on: Pseudomonas aeruginosa G-75; assay: MIC by agar plate dilution method; type: cell-based; conditions: 37° C., 24 hours
Experimental: as §4, §5, §6, §7, §8

[16] = tested on: Klebsiella pneumoniae 3K25; assay: MIC by agar plate dilution method; type: cell-based; conditions: 3K25, 24 h, 37° C., read-out: Minimum inhibitory concentration
Experimental: as §4, §5, §6, §7, §8

[17] = tested on: Serratia marrcescens FU-111; assay: MIC by agar plate dilution method; type: cell-based; conditions: FU111, 24 h, read-out: Minimum inhibitory concentration
Experimental: as §4, §5, §6, §7, §8

[18] = tested on: Klebsiella pneumoniae 15c; assay: MIC by agar plate dilution method; type: cell-based; conditions: 24 h, read-out: Minimum inhibitory concentration
Experimental: as §4, §5, §6, §7, §8

[19] = tested on: Bacillus cereus; assay: MIC by agar plate dilution method; type: cell-based; conditions: 37° C., 24 hours
Experimental: as §4, §5, §6, §7, §8

[20] = tested on: Bacillus subtilis PCI-219; assay: MIC by agar plate dilution method; type: cell-based; conditions: 37° C., 24 hours
Experimental: as §4, §5, §6, §7, §8

[21] = tested on: Bacillus thuringensis; assay: MIC by agar plate dilution method; type: cell-based; conditions: 24 h, 37° C., read-out: Minimum inhibitory concentration
Experimental: as §4, §5, §6, §7, §8

[22] = tested on: Proteus mirabilis 9'; assay: MIC by agar plate dilution method; type: cell-based; conditions: 24 h, 37° C., read-out: Minimum inhibitory concentration
Experimental: as §4, §5, §6, §7, §8

[23] = tested on: Salmonella typhi TANAKA; assay: MIC by agar plate dilution method; type: cell-based; conditions: Salmonella enterica, 24 h
Experimental: as §4, §5, §6, §7, §8

[24] = tested on: Shigella flexneri 2b; assay: MIC by agar plate dilution method; type: cell-based; conditions: 24 h, 37° C., read-out: Minimum inhibitory concentration
Experimental: as §4, §5, §6, §7, §8

[25] = read-out: Minimum inhibitory concentration, Anti-3A, 37° C.
[26] = read-out: Minimum inhibitory concentration, MHA, 37° C.
[27] = read-out: Minimum inhibitory concentration, NA + G6P (50 μg/ml), 37° C.
[28] = read-out: Minimum inhibitory concentration, NA, 37° C.
[29] = NA + G6P (50 μg/ml), 37° C., 24 hours

SMILES: C=CC(C)=CC1(C)SC(=O)C(C)=C1O (single isomer, unassigned) [No. 2-200]
- LD50 at 240 h ([1]; ip): 810 mg/kg
- LD50 at 240 h ([1]; iv): 705 mg/kg
- antibacterial activity to bacteria of genus Salmonella [2]: particularly strong antibacterial activity
- antibacterial activity to gram negative bacteria [3]: exhibits antibacterial activity
- MIC [4]: 100 µg/mL (≈ 476 µM)
- MIC [5]: 3.12 µg/mL (≈ 14.8 µM)
- MIC [6]: 6.25 µg/mL (≈ 29.7 µM)
- MIC [7]: 12.5 µg/mL (≈ 59.4 µM)
- MIC [8]: 3.12 µg/mL (≈ 14.8 µM)
- delayed toxicity (general statement) [9]: no delayed toxicity
- MIC [10, 25]: 50 µg/mL (≈ 238 µM)
- MIC [10, 26]: 3.12 µg/mL (≈ 14.8 µM)
- MIC [10, 27]: 50 µg/mL
- MIC [10, 28]: 50 µg/mL (≈ 238 µM)
- MIC ([11]; Anti-3A): 100 µg/mL (≈ 476 µM)
- MIC ([11]; MHA): 50 µg/mL (≈ 238 µM)
- MIC ([11]; NA + G6P (50 μg/ml)): 50 µg/mL
- MIC ([11]; NA): 50 µg/mL (≈ 238 µM)
- MIC ([12]; M57740, 24 h, read-out: Minimum inhibitory concentration, Anti-3A, 37° C.): 1.56 µg/mL (≈ 7.42 µM)
- MIC ([12]; M57740, 24 h, read-out: Minimum inhibitory concentration, NA + G6P (50 μg/ml), 37° C.): 1.56 µg/mL
- MIC ([12]; M57740, 24 h, read-out: Minimum inhibitory concentration, NA, 37° C.): 1.56 µg/mL (≈ 7.42 µM)
- MIC ([12]; M57740, MHA, 37° C., 24 hours, read-out: Minimum inhibitory concentration): ≤ 0.78 µg/mL
- MIC ([13]; Anti-3A): > 400 µg/mL
- MIC ([13]; MHA): 100 µg/mL (≈ 476 µM)
- MIC ([13]; NA + G6P (50 μg/ml)): ≥ 400 µg/mL
- MIC ([13]; NA): > 400 µg/mL
- MIC ([14]; 24 h, read-out: Minimum inhibitory concentration, Anti-3A, 37° C.): 12.5 µg/mL (≈ 59.4 µM)
- MIC ([14]; 24 h, read-out: Minimum inhibitory concentration, NA + G6P (50 μg/ml), 37° C.): 12.5 µg/mL
- MIC ([14]; 24 h, read-out: Minimum inhibitory concentration, NA, 37° C.): 12.5 µg/mL (≈ 59.4 µM)
- MIC ([14]; MHA, 37° C., 24 hours, read-out: Minimum inhibitory concentration): 25 µg/mL (≈ 119 µM)
- Minimum inhibitory concentration ([15]; Anti-3A): 6.25 µg/mL (≈ 29.7 µM)
- Minimum inhibitory concentration ([15]; MHA): 6.25 µg/mL (≈ 29.7 µM)
- Minimum inhibitory concentration ([15]; NA + G6P (50 μg/ml)): 6.25 µg/mL
- MIC ([15]; Pseudomonas aeruginosa, G75, NA, read-out: Minimum inhibitory concentration): 6.25 µg/mL (≈ 29.7 µM)
- MIC ([16]; Anti-3A): 50 µg/mL (≈ 238 µM)
- MIC ([16]; MHA): 50 µg/mL (≈ 238 µM)
- MIC ([16]; NA + G6P (50 μg/ml)): 100 µg/mL
- MIC ([16]; NA): 200 µg/mL (≈ 951 µM)
- MIC ([17]; Anti-3A, 37° C., 24 hours): 25 µg/mL (≈ 119 µM)
- MIC [17, 29]: 50 µg/mL
- MIC ([17]; NA, 37° C., 24 hours): 50 µg/mL (≈ 238 µM)
- MIC [17]: 6.25 µg/mL (≈ 29.7 µM)
- MIC ([18]; Anti-3A, 37° C., 24 hours): 50 µg/mL (≈ 238 µM)
- MIC [18, 29]: 100 µg/mL
- MIC ([18]; NA, 37° C., 24 hours): 100 µg/mL (≈ 476 µM)
- MIC [18]: 12.5 µg/mL (≈ 59.4 µM)
- Minimum inhibitory concentration ([19]; Anti-3A): 50 µg/mL (≈ 238 µM)
- MIC ([19]; Bacillus cereus, NA, read-out: Minimum inhibitory concentration): 50 µg/mL (≈ 238 µM)
- Minimum inhibitory concentration ([19]; MHA): 50 µg/mL (≈ 238 µM)
- Minimum inhibitory concentration ([19]; NA + G6P (50 μg/ml)): 50 µg/mL
- Minimum inhibitory concentration ([20]; Anti-3A): 50 µg/mL (≈ 238 µM)
- MIC ([20]; Bacillus subtilis, PCI219, NA, read-out: Minimum inhibitory concentration): 50 µg/mL (≈ 238 µM)
- Minimum inhibitory concentration ([20]; MHA): 50 µg/mL (≈ 238 µM)
- Minimum inhibitory concentration ([20]; NA + G6P (50 μg/ml)): 50 µg/mL
- MIC ([21]; Anti-3A): 50 µg/mL (≈ 238 µM)
- MIC ([21]; MHA): 50 µg/mL (≈ 238 µM)
- MIC ([21]; NA + G6P (50 μg/ml)): 25 µg/mL
- MIC ([21]; NA): 50 µg/mL (≈ 238 µM)
- MIC ([22]; Anti-3A): 100 µg/mL (≈ 476 µM)
- MIC ([22]; MHA): 200 µg/mL (≈ 951 µM)
- MIC ([22]; NA + G6P (50 μg/ml)): 50 µg/mL
- MIC ([22]; NA): 50 µg/mL (≈ 238 µM)
- MIC [23, 25]: 12.5 µg/mL (≈ 59.4 µM)
- MIC [23, 26]: 3.12 µg/mL (≈ 14.8 µM)
- MIC [23, 27]: 12.5 µg/mL
- MIC [23, 28]: 12.5 µg/mL (≈ 59.4 µM)
- MIC ([24]; Anti-3A): 3.12 µg/mL (≈ 14.8 µM)
- MIC ([24]; MHA): 1.56 µg/mL (≈ 7.42 µM)
- MIC ([24]; NA + G6P (50 μg/ml)): 6.25 µg/mL
- MIC ([24]; NA): 6.25 µg/mL (≈ 29.7 µM)
